Results reported in PMC6493465 (Oncotarget, 2019).
Like-named read-outs stand apart in the source and are kept apart here. Blank lines part the entries; values can stand above or below the molecule they belong to.

Experiments:
[1] = test system: MOLM-13 cells; test: Antitumor effects in mice xenografted with MOLM-13 cells; type: in vivo, mouse; details: MOLM-13 xenograft
Protocol: Four or five-week-old male nude mice (CanN.Cg-Foxn1nu/Crl/Crlj[nu/nu]; Charles River Laboratories Japan, Inc., Kanagawa, Japan) were maintained under specific pathogen-free conditions and received a standard diet and water supply throughout the study. All animal experimental procedures were performed in accordance with the Animal Ethics Committee of Astellas Pharma, Inc. For in vivo experiments, suspensions of MV4-11 and MOLM-13 cells in PBS at a concentration of 1 × 10^8 cells/mL were mixed with an equivalent volume of Matrigel® Basement Membrane Matrix, resulting in a final cell concentration of 5 × 10^7 cells/mL. The cells were subcutaneously injected into the flanks of mice at a concentration of 5 × 10^6 cells/0.1 mL/mouse. After tumor establishment, mice were divided into groups with similar mean tumor volume across groups.
Dosing volumes were 10 mL/kg for oral and intraperitoneal (IP) administration, and 5 or 10 mL/kg for intravenous (IV) administration. Treatment was administered once daily on designated days. The first day of treatment was designated as Day 0 and observation continued until Day 20 or 21 for mice xenografted with MV4-11 cells and Day 16 for mice xenografted with MOLM-13 cells. In mice xenografted with MV4-11 cells for experiments involving triple combination treatment, the control group received oral administration of vehicle (0.5% methylcellulose, Days 0–20), IP administration of vehicle (saline, Days 0–4), and IV administration of vehicle (saline, Days 0–2).
Mice with established tumors were selected and divided into groups on Day −1 or Day 0, so that the mean tumor volumes were similar across groups. Body weights and tumor volumes assessed on Day −1 were designated as Day 0 values. Body weight and tumor diameter were measured for each experimental group; antitumor activity was expressed as the percent inhibition of tumor growth and the percent of tumor regression (further details are outlined in the Supplementary Materials). […] Complete regression was defined as no palpable or observable tumor. […]
www.oncotarget.com Oncotarget, Supplementary Materials […]
Body weight and tumor diameter were measured group on Day 0]) in xenografted nude mice xenografted with MV4-11 cells on the indicated days for each experimental group: 1. […]
Tumor diameter was measured using a caliper and tumor 0.5% methylcellulose); 2. Oral methylcellulose (0.5%) in volume was determined by calculating the volume of an combination with IV IDR (0.5 mg/kg) and IP AraC (50 ellipsoid (ie, Length × Width2 × 0.5). The percent inhibition mg/kg); 3. […]
of tumor growth was calculated using the formula: kg) and IP AraC (50 mg/kg). […]
The percent tumor regression was calculated using […]

[2] = Pharmacokinetic assays (plasma and tumor) in nude mice xenografted with MV4-11 cells; type: in vivo, mouse; details: for AUC24 ratio: combination versus the other group; for Cmax / Tmax / AUC: nude, mouse; for AUC: read-out: AUC24
Protocol: Plasma samples were prepared by centrifugation (n=3 per group; one sample in the combination group was excluded due to improper handling). […] These assays were conducted by Astellas Research Technologies Co., Ltd. under the guidance of Analysis & Pharmacokinetics Research Laboratories, Astellas Pharma, Inc., or by Nemoto Science Co., Ltd. (Ibaraki, Japan). […] Body weight and tumor assessments obtained on with MV4-11 cells received one of the following Day −1 were designated as Day 0 (baseline) measurements. combination treatments: 1. […] The percent tumor regression was calculated using the formula: […]

[3] = test system: MCL-1, BCL2L10, survivin and cPARP in MOLM-13 cells; test: Western blot analysis of anti-apoptotic protein expression, MOLM-13; type: cell-based, human; details: MOLM-13, 24-hour treatment; gilteritinib 30 nM, AraC 100 nM, IDR 3 nM, Aza 1000 nM
Protocol: Cell lysates were prepared in radioimmunoprecipitation assay buffer (Thermo Fisher Scientific Inc., Rockford, IL) supplemented with phosphatase (Thermo Fisher Scientific Inc.) and protease inhibitors (Merck, Billerica, MA), electrophoresed on 4%–15% gels, and subsequently transferred to polyvinylidene difluoride membranes. The membranes were blocked using Blocking One (Nacalai Tesque Inc., Kyoto, Japan) for 1 hour and then incubated overnight with primary antibodies to MCL-1, BCL210, cPARP (all from Cell Signaling Technology, Danvers, MA, USA), survivin (R&D Systems, Inc., Minneapolis, MN), and α-actin (MilliporeSigma, Burlington, MA). The membranes were washed with TBS Tween-20 (TBS-T) buffer and incubated with appropriate horseradish peroxidase-linked secondary antibodies (Cell Signaling Technology Japan K.K.) for 1 hour at room temperature. After washing the membranes in TBS-T buffer, enhanced chemiluminescence Western Blotting Detection Reagent ECL-prime (GE Healthcare, Fairfield, CT) was applied. Signals were detected with a charge-coupled device camera (ImageQuant LAS4000; GE Healthcare); signal intensity was quantified using ImageQuant™ TL software (GE Healthcare).

[4] = table title day 21, Aza experiment: oral gilteritinib 30 mg/kg/day Days 0-16, IV Aza 3 mg/kg/day Days 0-4
[5] = plasma, iv, 3 mg/kg, azacitidine in plasma, gilteritinib 3, azacitidine 3 mg/kg
[6] = plasma, iv, azacitidine in plasma, doses gilteritinib 3, azacitidine 0 mg/kg
[7] = tumor, iv, 3 mg/kg, azacitidine in tumor, gilteritinib 3, azacitidine 3 mg/kg
[8] = plasma, po, 3 mg/kg, gilteritinib in plasma, gilteritinib 3 mg/kg, AraC 0, IDR 0
[9] = plasma, po, 3 mg/kg, gilteritinib in plasma, gilteritinib 3, AraC 50, IDR 0.5 mg/kg
[10] = plasma, po, 3 mg/kg, gilteritinib in plasma, gilteritinib 3, azacitidine 0 mg/kg
[11] = plasma, po, 3 mg/kg, gilteritinib in plasma, gilteritinib 3, azacitidine 3 mg/kg
[12] = tumor, po, 3 mg/kg, gilteritinib in tumor, gilteritinib 3 mg/kg, AraC 0, IDR 0
[13] = tumor, po, 3 mg/kg, gilteritinib in tumor, gilteritinib 3, AraC 50, IDR 0.5 mg/kg
[14] = tumor, po, 3 mg/kg, gilteritinib in tumor, gilteritinib 3, azacitidine 0 mg/kg
[15] = tumor, po, 3 mg/kg, gilteritinib in tumor, gilteritinib 3, azacitidine 3 mg/kg

AUC24 ratio ([2]; azacitidine in plasma): 0.87 | AUC24 ratio ([2]; azacitidine in tumor): 1.17 | AUC24 ([2]; azacitidine in tumor, doses gilteritinib 3, azacitidine 0 mg/kg): 323 ng·h/g | AUC24 ([2]; azacitidine in tumor, gilteritinib 3, azacitidine 3 mg/kg): 378 ng·h/g | Cmax [2, 5]: 3440 ng/mL | Tmax [2, 5]: 0.08 h | AUC [2, 5]: 1610 ng·h/mL | Cmax [2, 6]: 3390 ng/mL | Tmax [2, 6]: 0.08 h | AUC [2, 6]: 1850 ng·h/mL | Cmax [2, 7]: 96.8 ng/g | Tmax [2, 7]: 0.5 h | Cmax ([2]; tumor, iv, azacitidine in tumor): 61.3 ng/g | Tmax ([2]; tumor, iv, azacitidine in tumor, doses gilteritinib 3, azacitidine 0 mg/kg): 0.08 h
SMILES: Nc1ncn([C@@H]2O[C@H](CO)[C@@H](O)[C@H]2O)c(=O)n1 [Aza, Azacitidine]
Inhibition of Tumor Growth [1, 4]: 37% | expression of MCL-1, BCL2L10, and survivin [3]: little effect

difference in PK profile alone versus in combination ([2]; alone or in combination with AraC/IDR or Aza): no discernable difference | AUC24 ([2]; gilteritinib in tumor, gilteritinib 3 mg/kg, AraC 0, IDR 0): 6430.2 ng·h/g | AUC24 ([2]; gilteritinib in tumor, gilteritinib 3, AraC 50, IDR 0.5 mg/kg): 6639.0 ng·h/g | AUC24 ([2]; gilteritinib in tumor, gilteritinib 3, azacitidine 0 mg/kg): 3821 ng·h/g | AUC24 ([2]; gilteritinib in tumor, gilteritinib 3, azacitidine 3 mg/kg): 3964 ng·h/g | Cmax [2, 8]: 21.3 ng/mL | Tmax [2, 8]: 2 h | AUC [2, 8]: 156 ng·h/mL | Cmax [2, 9]: 22.3 ng/mL | Tmax [2, 9]: 2 h | AUC [2, 9]: 199 ng·h/mL | Cmax [2, 10]: 11 ng/mL | Tmax [2, 10]: 2 h | AUC [2, 10]: 65.8 ng·h/mL | Cmax [2, 11]: 10.1 ng/mL | Tmax [2, 11]: 2 h | AUC [2, 11]: 69.1 ng·h/mL | Cmax [2, 12]: 677 ng/g | Tmax [2, 12]: 2 h | Cmax [2, 13]: 437 ng/g | Tmax [2, 13]: 4 h | Cmax [2, 14]: 387 ng/g | Tmax [2, 14]: 4 h | Cmax [2, 15]: 349 ng/g | Tmax [2, 15]: 4 h | time after administration at which plasma concentrations peaked ([2]; plasma, alone or in combination with AraC/IDR or Aza): 2 h | concentration in tumor fraction versus plasma fraction ([2]; xenografted mice): higher in the tumor fraction
SMILES: CCc1nc(C(N)=O)c(Nc2ccc(N3CCC(N4CCN(C)CC4)CC3)c(OC)c2)nc1NC1CCOCC1 [Gilteritinib]
Inhibition of Tumor Growth ([1]; by Day 16, gilteritinib 30 mg/kg alone (both experiments)): ≥ 90% | Inhibition of Tumor Growth ([1]; table title day 21, AraC/IDR experiment: oral gilteritinib 30 mg/kg/day Days 0-15, IP AraC 50 mg/kg/day Days 0-4, IV IDR 0.5 mg/kg/day Days 0-2): 93% | Inhibition of Tumor Growth [1, 4]: 90% | expression of MCL-1, BCL2L10, and survivin [3]: strongly inhibited
